According to PubChem BioAssay (NCI):
Where “and” joins values, the source holds several entries; their conditions need not be identical. Equal values may be shown once.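 How tested: cells in 96-well plates exposed to compound for 48 hours at five concentrations. The concentration for full growth arrest is given as TGI.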 Where a SMILES comes first, the peptide text is derived from it. The star is where a group is joined. Cbz = O=C(OCc1ccccc1)*; Boc = CC(C)(C)OC(=O)*; OSu = O=C1CCC(=O)N1O*; Bn = c1ccc(C*)cc1

Key:
Assay in all cases: DTP human tumour cell line panel, 48 h
786-0 renal = test system: 786-0 renal
NCI-H522 lung = test system: NCI-H522 lung
UO-31 renal = test system: UO-31 renal
HCC-2998 colon = test system: HCC-2998 colon

Structure (SMILES)	TGI (786-0 renal)	TGI (NCI-H522 lung)	TGI (UO-31 renal)	TGI (HCC-2998 colon)
O=C1NC(=O)C2(CCCCCC2)N1	> 100 µM	> 100 µM	> 100 µM	
COC(=O)C1OC(O[C@H]2CC[C@]3(C)[C@H]4CC=C5[C@@H]6CC(C)(C)CC[C@]6(C(=O)OC6OCC(O)C(O)C6OC6OC(C)C(OC7OCC(O)C(OC8OCC(O)C(O)C8O)C7O)C(OC7OCC(O)C(O)C7O)C6O)CC[C@@]5(C)[C@]4(C)CC[C@H]3C2(C)C)C(O)C(OC2OCC(O)C(O)C2O)C1O (stereo not given in full)	> 100 µM and 16.6 µM	5.32 µM and 5.78 µM	4.36 µM and 4.14 µM	3.13 µM and 3.37 µM
O=C(O)c1ccc(NC(NC(=O)C(C(F)(F)F)C(F)(F)F)(C(F)(F)F)C(F)(F)F)cc1	> 100 µM		> 100 µM	> 100 µM
CCCCCCCCCCCCCCCCOCC(Cl)COP(=O)(O)OP(=O)(O)OCC1OC(n2cc(C)c(=O)[nH]c2=O)CC1O (stereo not given)	> 100 µM	> 100 µM	> 100 µM	> 100 µM
CN(C)S(=O)(=O)/N=C/c1cccc(/C=N/S(=O)(=O)N(C)C)c1	> 100 µM		> 100 µM	> 100 µM
CC(C)(C)Nc1noc(=O)n1C(C)(C)C	> 100 µM	> 100 µM	> 100 µM	
CN(NC(=O)c1cccs1)C1=NCCCCN1	> 100 µM	> 100 µM	> 100 µM	> 100 µM
CN(C)CCN=C1Nc2ccccc2C(=S)N2CSCC12 (stereo not given)	> 100 µM	> 100 µM	> 100 µM	> 100 µM
CC(C)NC(=O)OCc1c(COC(=O)NC(C)C)c(-c2cc[n+](COC(=O)C(C)(C)C)cc2)n2c1CCC2	> 100 µM	> 100 µM	> 100 µM	> 100 µM
C=C(C)[C@H]1C=C[C@@H](OC(=O)c2cccnc2)[C@@]23CO[C@@](C)([C@H](OC(=O)c4cccnc4)[C@@]4(OC(C)=O)C[C@H](C)[C@H](OCCC)[C@@H]4[C@H]2OC(C)=O)[C@H]13	> 15 µM	> 15 µM	> 15 µM	> 15 µM
CCOC(=O)[C@@]12C3C=CC(CC3)[C@]1(C(=O)c1ccccc1)C(=O)C(=O)N2c1ccccc1 (stereo not given in full)	> 100 µM	> 100 µM	> 100 µM	> 100 µM
O=c1[nH]nc(Cc2ccccc2)n1/N=C\c1ccccc1	> 100 µM	> 100 µM	> 100 µM	> 100 µM
COC(=O)/C=C1/CCC(C)(C(=O)NS(=O)(=O)c2ccc(C)cc2)C1(C)C (stereo not given)	> 100 µM	> 100 µM	> 100 µM	> 100 µM
O=C(CSc1nc2[nH]ncc2c(=O)[nH]1)c1ccc(Cl)cc1	> 100 µM	> 100 µM	> 100 µM	> 100 µM
COc1cc(C2C(C#N)=C(N)OC3=C2CCS(=O)(=O)c2ccc(C)cc23)cc(OC)c1OC (stereo not given)	> 100 µM	> 100 µM	> 100 µM	> 100 µM
COc1ccc(OCc2ccc3nc(-c4ccccc4)c(Cl)nc3c2)cc1	32.6 µM	40.5 µM	> 100 µM	> 100 µM
CC1=C/C(=N\O)C(C(O)(C(F)(F)F)C(F)(F)F)C(C)(C)C1 (stereo not given)	> 10 µM	> 10 µM	> 10 µM	> 10 µM
COc1ccc2[nH]cc([C@@H]3C4CCC(C4)[C@H]3NCc3cccc(CN[C@H]4C5CCC(C5)[C@@H]4c4c[nH]c5ccc(OC)cc45)c3)c2c1	1.9 µM and 2 µM	2.48 µM and 2.83 µM	2.85 µM and 2.64 µM	0.53 µM and 0.842 µM
CC(=O)Nc1cc2c3c(c1)CCCN3CCC2	> 100 µM	> 100 µM	> 100 µM	> 100 µM
O=P1(Oc2ccccc2)N(CCCl)CCN1c1ccccc1 (stereo not given)	> 100 µM	> 100 µM	> 100 µM	> 100 µM
COC(CC1(/C=C/O[Si](C(C)C)(C(C)C)C(C)C)C(=O)N(C)c2ccccc21)OC (stereo not given)	71.6 µM		> 100 µM	> 100 µM
CCC[C@H](NS(=O)c1ccc(C)cc1)C(C(=O)OCC)=C(c1ccccc1)c1ccccc1 (stereo not given in full)	35.9 µM	55.1 µM	31.2 µM	15.3 µM
Nc1ccn(C2CCC(CO)O2)c(=S)n1 (stereo not given)	> 100 µM	> 100 µM	> 100 µM	> 100 µM
CC(=O)CSc1c(-c2ccccc2)c(=O)n(-c2ccccc2)c(=S)n1-c1ccccc1	> 100 µM	> 100 µM	> 100 µM	
O=c1ccn(C2OC(CO)C(O)C2[Se]c2ccccc2)c(=O)[nH]1 (stereo not given)	> 100 µM	> 100 µM	> 100 µM	> 100 µM

Structure (SMILES)	TGI (786-0 renal)	TGI (NCI-H522 lung)	TGI (UO-31 renal)	TGI (HCC-2998 colon)
NC(=S)N/N=C1\NC(=O)/C(=C/c2ccc3c(c2)OCO3)S1	> 100 µM		> 100 µM	> 100 µM
COCCCNC(=O)C1=C(C)NC(C)=C(C(=O)NCCCOC)C1	> 100 µM	27.4 µM	> 100 µM	> 100 µM
CN(C)P(=O)(Oc1ccc(CC(NC(=O)OCc2ccccc2)C(=O)OCc2ccccc2)cc1)N(C)C (stereo not given)	17.5 µM	30.9 µM	33.3 µM	37.8 µM
CCCCCCOc1ccc(C(=O)NO)cc1	16.6 µM	19.7 µM	20.1 µM	28.3 µM
CCOC(=O)CSc1nnc2cc(CN3CCCC3)c(-c3ccc(Cl)cc3)nn12	> 100 µM	> 100 µM	> 100 µM	
O=C(Nc1ccccc1)N(C1=NCC(CI)S1)c1ccc(F)cc1F (stereo not given)	> 100 µM	> 100 µM	> 100 µM	> 100 µM
CCN(CC)CCNC(=O)c1cc2cc(NC(=O)c3cc4cc(NC(=O)c5cc6cc(N)ccc6[nH]5)ccc4[nH]3)ccc2[nH]1	> 100 µM	> 100 µM	> 100 µM	> 100 µM
O=C(O)CCc1ccc2c(c1)C(=O)CC2	> 100 µM	> 100 µM	> 100 µM	> 100 µM
COc1cc2cccc(N)c2cc1OC	> 100 µM	> 100 µM	> 100 µM	> 100 µM
c1ccc(-n2nc3ccc4nonc4c3n2)cc1	> 100 µM			> 100 µM
COc1ccc2cc(C(=O)O)ccc2c1OC	> 100 µM	> 100 µM	> 100 µM	> 100 µM
O=C(N=Nc1cccc(Cl)c1)NNc1cccc(Cl)c1	28.4 µM	42.6 µM	45.5 µM	28.9 µM
CCc1n[nH]c(=O)n1/N=C/c1ccc(C)cc1	> 100 µM	> 100 µM	> 100 µM	> 100 µM
CC(SC(=S)N1CCOCC1)C(=O)Nc1nnc(-c2ccccc2)o1 (stereo not given)	> 100 µM	> 100 µM	> 100 µM	
CC(=O)Oc1ccccc1/C=C/C(=O)/C=C/c1ccccc1OC(C)=O	3.71 µM	4.69 µM	3.48 µM	4.18 µM
COc1cc(S(=O)(=O)Nc2ccc(-c3csc(N)n3)cc2)ccc1Cl	30 µM	42.4 µM	37.2 µM	
CCOC(=O)C(C)NC(=O)C(C)NC(=O)C(C)NC(=O)C(C)NC(=O)C(C)NC(=O)OCc1ccccc1 (stereo not given)	> 100 µM	> 100 µM	> 100 µM	> 100 µM
CCOC(=O)[C@@]12C[C@](/C=C/OC)(O[Si](C)(C)C)[C@@]13c1cc(OC)c(OC)cc1CCN3C(=O)C2O (stereo not given in full)	> 100 µM		> 100 µM	
C=CCSC1=N/C(=C\c2cccs2)C(=O)N1CC=C	> 100 µM	> 100 µM	> 100 µM	> 100 µM
c1ccc(CNCCCCNCCCNCc2ccccc2)cc1	31.4 µM	31 µM	52.4 µM	31.3 µM
Clc1cc(Cl)cc(C2ON=C(c3ccccc3)N2C23CC4CC(CC(C4)C2)C3)c1 (stereo not given)	> 10 µM	> 10 µM	> 10 µM	> 10 µM
C=C[C@@H]1C[C@]2(C(=O)OC)Cc3nc4ccccc4nc3CC(C(=O)OC)=C2O1	> 100 µM	> 100 µM		
Cc1ccc(Nc2c(C#N)[n+]([O-])c3cc(Cl)ccc3[n+]2[O-])cc1	> 100 µM	> 74.8 µM	> 100 µM	> 100 µM
COc1cc(OC)c2nc(C)c3c(c2c1)NCC3	17.2 µM	19.6 µM	27.5 µM	20.3 µM
O=c1oc2ccccc2c(O)c1/C=N/C(=S)NCCc1ccccc1	> 100 µM	87.4 µM	> 74.6 µM	> 100 µM

Structure (SMILES)	TGI (786-0 renal)	TGI (NCI-H522 lung)	TGI (UO-31 renal)	TGI (HCC-2998 colon)
C=C(C)[C@@]1(OC(=O)c2cc([N+](=O)[O-])cc([N+](=O)[O-])c2)C[C@@H]2CCCC[C@@H]21	> 100 µM	> 100 µM	> 100 µM	> 100 µM
CCOC(=O)c1cnc2n(c1=N)[C@H]1CCCC[C@@H]1N2	> 100 µM	> 100 µM	> 100 µM	> 100 µM
Cc1ncc2c(=O)c3c(oc2n1)c1ccccc1n3Cc1ccccc1	> 100 µM	> 100 µM	> 100 µM	> 100 µM
CC(C)(C)OC(=O)NC(Cc1ccc(OCc2ccccc2)cc1)C(=O)NC(CCCCNC(=O)OCc1ccccc1)C(=O)ON1C(=O)CCC1=O (stereo not given) (Boc-Tyr(Bn)-Lys(Cbz)-OSu; configuration not given here)	35.7 µM		76.3 µM	32 µM
CCN(CC)c1ccc2cc(C(=O)Nc3ccccc3)c(=N)oc2c1	> 100 µM		> 100 µM	> 100 µM
CC1=CC[C@@]2(CO)[C@@H]([C@@H]1C)[C@H]1CC[C@@H]3[C@@]4(C)CC[C@H](O)C(C)(C)[C@@H]4CC[C@@]3(C)[C@]1(C)C[C@@H]2O	> 100 µM	42.8 µM	> 100 µM	
Cc1nc2c(=O)n(-c3ccccc3)c3ccccc3c2o1	> 100 µM		> 100 µM	> 100 µM
O=C(O)c1cc(/C=C/c2cc(O)ccc2O)ccc1O	> 10 µM	> 10 µM	> 10 µM	> 10 µM
Cc1nc(N/N=C/c2ccccc2Cl)[nH]c(=O)c1CCO	> 100 µM	34.4 µM	> 100 µM	> 100 µM
c1ccc([P+](Cc2ccccc2C[P+](c2ccccc2)(c2ccccc2)c2ccccc2)(c2ccccc2)c2ccccc2)cc1	> 100 µM	> 100 µM	> 100 µM	> 100 µM
CC(NC(=O)C(N)CC(=O)O)NC(=O)C1CCC1 (stereo not given)	> 100 µM	> 100 µM	> 100 µM	
O=C(c1ccccc1)c1ccc(-n2c3ccccc3c3ccc4c(c32)C(=O)C=CC4=O)cc1	5.77 µM	8.9 µM	7.78 µM	29.6 µM
C[n+]1c(-c2ccc(/C=N/NC(=O)C(=O)N/N=C/c3ccc(-c4cn5ccsc5[n+]4C)cc3)cc2)cn2ccsc21	> 100 µM	> 100 µM	> 100 µM	> 100 µM
c1cc2c(c(NC3=NCCO3)c1)CCC2	> 100 µM	> 100 µM	> 100 µM	
COC(=O)[C@@H]1CN(C(C)=O)C(=O)N1C(=O)OCc1ccccc1	> 100 µM	> 100 µM	> 100 µM	> 100 µM
Oc1ccc(N=C2CCC(=C(c3ccccc3)c3ccc(Nc4ccc(O)cc4)cc3)CC2)cc1	> 100 µM	> 100 µM	> 100 µM	> 100 µM
CCOc1ccc(N/C(Cl)=C(Cl)\C(=C(\Nc2ccc(OCC)cc2)n2nnc3ccccc32)[N+](=O)[O-])cc1	14.2 µM	2.86 µM	23.9 µM	46.6 µM
CC(NC(=O)c1ccccc1)NC(=O)C(C)C(=O)Nc1ccccc1 (stereo not given)	> 100 µM	> 100 µM	> 100 µM	
Cc1cc(S(=O)(=O)Nc2cc(N)[nH]n2)c(SCc2nc(N)nc(N(C)C)n2)cc1Cl	> 10 µM	> 10 µM	> 10 µM	> 10 µM
Nc1cc(N2CCCC2)nc(=O)n1-c1ccccc1	> 100 µM	> 100 µM		75.6 µM
Cc1nnc2sc(NN)nn12	> 100 µM	> 100 µM	> 100 µM	
NCCN1C(=O)CN=C(c2ccc(Cl)cc2)c2cc(Cl)ccc21	30.4 µM	37.3 µM	27.3 µM	31.8 µM
N#C/C(C(=O)Nc1ccc(Cl)cc1)=C(/N)N1CCCCC1	> 100 µM		> 100 µM	> 100 µM
CO/N=C(\C(=O)N(C)n1cnnc1)c1csc(NC(c2ccccc2)(c2ccccc2)c2ccccc2)n1	> 10 µM	> 10 µM	> 10 µM	> 10 µM
